Data from patent publication US11434205B2, “Substituted imidazole carboxylate derivatives and the use thereof” (priority 2018, dated 2022).
Like-named read-outs stand apart in the source and are kept apart here.

Experiments:
rats [1] = details: continuous tail vein infusion at 2×MIR, LORR maintained 1 hour
Method: Pharmacological Effects of the Compounds on Continuous Infusion in Rats
Adult male Sprague-Dawley rats with body weight ranging from 250 to 300 gm were selected for continuous infusion test. […] Time to recovery of righting reflex from stopping infusion, and time to fully awake from stopping infusion were recorded.

[2] = system: secretion of cortisol, H295R cell line; assay: cells; format: cell-based; details: for EC50: Homo sapiens, NCI-H295R, read-out: EC50 (Cortisol)
Method: (§1) The Effects of the Compounds on Adrenocortical Function In Vitro Test
(§2) Then secretion of the cortisol and corticosterone in the supernatant, was measured using HPLC-MS/MS method to determine whether the compounds of the present invention had adrenotoxic potential.

[3] = system: secretion of corticosterone, H295R cell line; assay: cells; format: cell-based; details: for EC50: Homo sapiens, NCI-H295R, read-out: EC50 (Corticosterone)
Method: as §1, §2

rats [4] = assay: Loss of righting reflexes (LORR) assay in rats, ED50 by up and down method; format: in vivo, rat; details: Rattus norvegicus, tail vein, class symbols
Procedure, shortened: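 Adult male Sprague-Dawley rats (250-300 g) dosed i.v. via tail vein at 0.1 mL/s. Anesthesia scored as loss of righting reflex lasting >30 s; ED50 derived by up-and-down method.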

rats [5] = format: in vivo, rat; details: rats of the MAP/HR figures, 2×ED50, tail vein; same value in min
Procedure, shortened: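 Rats implanted with telemetry (left ventricular and abdominal aortic catheters, ECG leads) at least one week before recording; compounds given via lateral tail-vein catheter. MAP and HR sampled every 15 s for 30 min before and after dosing to judge hemodynamic stability.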

rats [6] = system: rats
Method: Adult male Sprague-Dawley rats (250-300 g) were selected for the experiment. […] The anesthesia effects of the compounds were assessed in rats using a LORR assay and a period >30 s was considered as an indicator of general anesthesia. Then the up and down method was used to determine 50% effective dose (ED50). The drugs were administered through the tail vein of rats in a volume of 0.6 mL and at a rate of 0.1 mL/s.

rats [7] = assay: Pharmacological characteristics at equivalent doses (2×ED50) in rats; details: 2×ED50, tail vein; for Adverse reactions: Red urine (incidence): DMSO solution (DMSO alone 10/10); for Onset time: time of LORR; for Adverse reactions: Tremor (incidence): animals affected/animals
Procedure, shortened: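 Adult male Sprague-Dawley rats (250-300 g, n=8) received each drug at twice its ED50 via tail vein (0.6 mL at 0.1 mL/s). Onset of anesthesia taken as time to LORR.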

rats [8] = format: in vivo, rat; details: rats of the MAP/HR figures, 2×ED50, tail vein
[9] = H295R cell line, 0.1-10000 nM, HPLC-MS/MS, Table D3

SMILES	Onset time (rats [1]; Table C4) [min]	Recovery time after stopping infusion (rats [1]; Table C4) [min]	Types and incidence of adverse reactions (rats [1]; Table C4)	Cortisol as an indicator to determine the presence of inhibition ([2]; H295R, Table C3)	EC50 [2] [nM]	Corticosterone as an indicator to determine the presence of inhibition ([3]; H295R, Table C3)	EC50 [3] [nM]	ED50 (rats [4]) [mg/kg]	recovery time of the test animals' righting reflex (rats [5]) [min]	Approximate therapeutic index (rats [6])	Minimal lethal dose (rats [6]) [mg/kg]	Righting reflex duration (rats [7]) [min]	Adverse reactions: Red urine (incidence) (rats [7])	Onset time (rats [7]) [min]	recovery time of the test animals' righting reflex (rats [8]) [s]	Adverse reactions: Tremor (incidence) (rats [7])	other results
CC(=O)CCOC(=O)c1cncn1[C@H](C)c1ccccc1 [Compound C7]	3 to 4	8 to 14	Tremor (6/6)	0	> 1000	0	> 1000	0.1 to 0.5	1.87	>10	>4	1.68 ± 0.88	Red urine (8/8)	0.15 ± 0.06	112		Adverse reactions: Muscle twitching (incidence) (rats [7]): Muscle twitching (4/8),
C[C@H](c1ccccc1)n1cncc1C(=O)OC(C)(C)C [Compound C18]	3 to 4	10 to 14	Tremor (1/6)	0	> 1000	0	> 1000	0.1 to 0.5	1.92	>14	>5	1.96 ± 1.39	(8/8)	0.25 ± 0.13	115	Tremor (5/8), Red urine	
CCCC(CCC)OC(=O)c1cncn1[C@H](C)c1ccccc1 [Compound C20]	3 to 4	8 to 15	Tremor (3/6), Myoclonus (1/6)	0	> 10000	0	> 10000	0.1 to 0.5	4.05	>16	>7	3.59 ± 2.63	(8/8)	0.43 ± 0.07	243	Tremor (2/8), Red urine	
CCC(CC)OC(=O)c1cncn1[C@H](C)c1ccccc1 [Compound C24]	3 to 4	9 to 13	Tremor (1/6)	0	> 1000	0	> 1000	0.01 to 0.1	2.25	>11	>1	2.21 ± 1.28	urine (8/8)	0.49 ± 0.15	135		Adverse reactions: Convulsions (incidence) (rats [7]): Convulsions (1/8), Red
CCCCC(CCCC)OC(=O)c1cncn1[C@H](C)c1ccccc1 [Compound C25]	3 to 4	12 to 15		0	> 1000	0	> 1000	0.1 to 0.5	2.08	>10	>4	2.03 ± 1.32	(8/8)	0.72 ± 0.20	125	Tremor (6/8), Red urine	
CSCOC(=O)c1cncn1[C@H](C)c1ccccc1 [Compound C26]	2 to 3	9 to 13	Tremor (2/6)	0	> 10000	0	> 10000	0.5 to 1	2.28	>11	>6	2.11 ± 1.02	Red urine (8/8)	0.30 ± 0.09	137		Adverse reactions: Muscle twitching (incidence) (rats [7]): Muscle twitching (1/8),
CSCCOC(=O)c1cncn1[C@H](C)c1ccccc1 [Compound C27]	3 to 4	10 to 11	Tremor (2/6)	0	> 1000	0	> 1000	0.5 to 1	3.1	>11	>9	3.06 ± 1.50	Red urine (8/8)	0.12 ± 0.07	186		
C=C=CC1(OC(=O)c2cncn2[C@H](C)c2ccccc2)CCC1 [Compound D13]					> 10000		> 10000	0.01 to 0.1	1.82	>12	>6	5.09 ± 1.89	Red urine (8/8)	0.25 ± 0.06	109		Onset time (rats [1]; Table D4): 2 to 3 min; Recovery time after stopping infusion (rats [1]; Table D4): 13 to 22 min; Types and incidence of adverse reactions (rats [1]; Table D4): Tremor (4/6); Cortisol as an indicator to determine the presence of inhibition [2, 9]: 0; Corticosterone as an indicator to determine the presence of inhibition [3, 9]: 0
C#CC(C)OC(=O)c1cncn1[C@H](C)c1ccccc1 (some centres unmarked) [Compound D14]					> 10000		> 10000	0.1 to 0.5	3.5	>13	>3	2.09 ± 1.08	Red urine (8/8)	0.24 ± 0.09	210		Onset time (rats [1]; Table D4): 2 to 3 min; Recovery time after stopping infusion (rats [1]; Table D4): 11 to 14 min; Types and incidence of adverse reactions (rats [1]; Table D4): Tremor (5/6); Cortisol as an indicator to determine the presence of inhibition [2, 9]: 0; Corticosterone as an indicator to determine the presence of inhibition [3, 9]: 0
